Patent US20230114241A1, “METHODS OF TREATING EPILEPSY USING THE SAME” (Trevena, Inc., priority 2019, published 2023)

target: human sphingosine-1-phosphate receptor 1 (S1P1) (Homo sapiens, UniProt P21453); assay: Inhibition of cAMP production (HTRF cAMP HiRange), S1P1 CHO-K1 cells; type: cell-based; details: inhibition of cAMP production, S1P1; read-out: hS1P1 CAMP pEC50 (converted)
How it was run: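 CHO-K1 cells co-expressing human S1P1 (C-terminal ProLink tag) and EA-β-arrestin2, plated overnight; after 30 min compound incubation at 37 °C, intracellular cAMP measured by HTRF TR-FRET following 1 h at room temperature. Values normalized to fingolimod.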

Sequence of human sphingosine-1-phosphate receptor 1 (S1P1) (P21453 whole entry): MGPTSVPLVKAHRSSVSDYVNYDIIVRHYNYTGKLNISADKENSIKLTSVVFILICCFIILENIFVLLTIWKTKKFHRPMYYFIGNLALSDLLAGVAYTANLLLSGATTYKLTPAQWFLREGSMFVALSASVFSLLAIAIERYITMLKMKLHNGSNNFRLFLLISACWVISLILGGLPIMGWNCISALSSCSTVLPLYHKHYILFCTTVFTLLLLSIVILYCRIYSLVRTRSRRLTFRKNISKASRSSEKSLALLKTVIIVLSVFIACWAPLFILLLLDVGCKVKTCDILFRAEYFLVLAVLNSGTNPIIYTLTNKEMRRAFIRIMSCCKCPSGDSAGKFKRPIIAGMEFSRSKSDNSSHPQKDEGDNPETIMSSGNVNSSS

SMILES | EC50 [nM]
CC(C)(O)Cn1nnc2cc(-c3nc(-c4ccncc4C(F)(F)F)no3)ccc21 [Compound 460, 2-methyl-1-(5-{3-[3-(trifluoromethyl)pyridin-4-yl]-1,2,4-oxadiazol-5-yl}-1H-1,2,3-benzotriazol-1-yl)propan-2-ol] | > 316
CC(C)n1nnc2cc(-c3nc4c(ccc5sccc54)o3)ccc21 [Compound 457, 4-[1-(propan-2-yl)-1H-1,2,3-benzotriazol-5-yl]-5-oxa-10-thia-3-azatricyclo[7.3.0.0^2,6] dodeca-1(9),2(6),3,7,11-pentaene] | < 316
COc1cnccc1-c1nc(-c2ccc3c(c2)nnn3C(C)C)no1 [Compound 606, 3-(1-isopropyl-1H-benzo[d][1,2,3]triazol-5-yl)-5-(3-methoxy-pyridin-4-yl)-1,2,4-oxadiazole] | < 316
COc1ccccc1-c1nc(-c2ccc3c(c2)nnn3C(C)C)co1 [Compound 575, 5-[2-(2-methoxy-phenyl)-1,3-oxazol-4-yl]-1-(propan-2-yl)-1H-1,2,3-benzotriazole] | < 316
Cc1occc1-c1noc(-c2ccc3c(c2)nnn3CC(C)(C)O)n1 [Compound 492, 2-methyl-1-{5-[3-(2-methylfuran-3-yl)-1,2,4-oxadiazol-5-yl]-1H-1,2,3-benzotriazol-1-yl}propan-2-ol] | > 316
COc1cccc2nc(-c3ccc4c(c3)nnn4C(C)C)oc12 [Compound 515, 2-(1-isopropyl-1H-benzo[d][1,2,3]triazol-5-yl)-7-methoxy-benzo[d]oxazole] | < 316
CC(C)n1nnc2cc(-c3nc4c(o3)CCc3sccc3-4)ccc21 [Compound 456, 4-[1-(propan-2-yl)-1H-1,2,3-benzotriazol-5-yl]-5-oxa-10-thia-3-azatricyclo[7.3.0.0^2,6] dodeca-1(9),2(6),3,11-tetraene] | < 316
Cc1nccnc1-c1nc(-c2ccc3c(c2)nnn3C(C)(C)CO)no1 [Compound 641, 2-methyl-2-(5-(5-(3-methyl-pyrazin-2-yl)-1,2,4-oxadiazol-3-yl)-1H-benzo[d][1,2,3]triazol-1-yl)propan-1-ol] | > 316
N#Cc1cc(-c2nnc(-c3ccc4[nH]cnc4c3)o2)ccc1NC1CC1 [Compound 598, 5-[5-(1H-1,3-benzo-diazol-5-yl)-1,3,4-oxadiazol-2-yl]-2-(cyclopropyl-amino)benzonitrile] | < 316

same assay, conditions: inhibition of cAMP production; potency; read-out: hS1P1 CAMP pEC50 (converted)

SMILES | EC50 [nM]
CC(C)n1nnc2cc(-c3nnc(-c4ccccc4O)s3)ccc21 [Compound 70, 2-{5-[1-(propan-2-yl)-1H-1,2,3-benzotriazol-5-yl]-1,3,4-thiadiazol-2-yl}phenol] | < 316
CC(C)n1nnc2cc(-c3nc(-c4ccc(Cl)s4)no3)ccc21 [Compound 170, 5-[3-(5-chlorothiophen-2-yl)-1,2,4-oxadiazol-5-yl]-1-(propan-2-yl)-1H-1,2,3-benzotriazole] | > 316
CCC1(CC)CC(=O)c2cc(-c3nc(-c4ccc(S(N)(=O)=O)cc4)no3)ccc2O1 [Compound 106, 4-(5-(2,2-diethyl-4-oxochroman-6-yl)-1,2,4-oxadiazol-3-yl)benzenesulfonamide] | < 316
C=CCNc1ccc(-c2nc(-c3ccc4c(c3)CCC(=O)N4)no2)cc1C#N [Compound 61, 2-(allylamino)-5-(3-(2-oxo-1,2,3,4-tetrahydroquinolin-6-yl)-1,2,4-oxadiazol-5-yl)benzonitrile] | < 316
Cc1cnc(-c2noc(-c3ccc4c(c3)nnn4C3CCOCC3)n2)cn1 [Compound 6, 5-[3-(5-methylpyrazin-2-yl)-1,2,4-oxadiazol-5-yl]-1-(oxan-4-yl)-1H-1,2,3-benzotriazole] | > 316
CC(C)n1nnc2cc(-c3noc(-c4ccc(C5CCCCC5)cc4)n3)ccc21 [Compound 290, 5-(4-cyclohexylphenyl)-3-(1-isopropyl-1H-benzo[d][1,2,3]triazol-5-yl)-1,2,4-oxadiazole] | > 316
CCC1(CC)CC(=O)c2cc(-c3nc(-c4ccncc4O)no3)ccc2O1 [Compound 312, 2,2-diethyl-6-(3-(3-hydroxypyridin-4-yl)-1,2,4-oxadiazol-5-yl)chroman-4-one] | > 316
N#Cc1cc(-c2nnc(-c3ccc4[nH]ncc4c3)o2)ccc1NCCF [Compound 353, 2-[(2-fluoroethyl)amino]-5-[5-(1H-indazol-5-yl)-1,3,4-oxadiazol-2-yl]benzonitrile] | < 316
CCC1(CC)CC(=O)c2cc(-c3nc(-c4ccc(NC(C)=O)cc4)no3)ccc2O1 [Compound 209, N-(4-(5-(2,2-diethyl-4-oxochroman-6-yl)-1,2,4-oxadiazol-3-yl)phenyl)acetamide] | < 316
Fc1ccc(-c2noc(-c3ccc4c(c3)nnn4C3CCCC3)n2)cc1 [Compound 232, 1-cyclopentyl-5-[3-(4-fluorophenyl)-1,2,4-oxadiazol-5 yl]-1H-1,2,3-benzotriazole] | > 316
CC(C)n1nnc2cc(-c3nc(-c4ccncc4)no3)ccc21 [Compound 244, 1-(propan-2-yl)-5-[3-(pyridin-4-yl)-1,2,4-oxadiazol-5-yl]-1H-1,2,3-benzotriazole] | < 316
FC(F)(F)c1cc(-c2noc(-c3ccc4c(c3)nnn4C3CCCC3)n2)ccc1OCc1cccnc1 [Compound 4, 1-cyclopentyl-5-{3-[4-(pyridin-3-ylmethoxy)-3-(trifluoromethyl)phenyl]-1,2,4-oxadiazol-5-yl}-1H-1,2,3-benzotriazole] | > 316
CC(C)n1nnc2cc(-c3nc(-c4ccccc4OC(F)(F)F)no3)ccc21 [Compound 132, 5-(1-isopropyl-1H-benzo[d][1,2,3]triazol-5-yl)-3-(2-(trifluoro-methoxy)phenyl)-1,2,4-oxadiazole] | < 316
CC(C)n1nnc2cc(-c3noc(C4CCOCC4)n3)ccc21 [Compound 89, 5-[5-(oxan-4-yl)-1,2,4-oxadiazol-3-yl]-1-(propan-2-yl)-1H-1,2,3-benzotriazole] | > 316
CCC1(CC)CC(=O)c2cc(-c3nc(-c4ccncc4)no3)ccc2O1 [Compound 27, 2,2-diethyl-6-[3-(pyridin-4-yl)-1,2,4-oxadiazol-5-yl]-3,4-dihydro-2H-1-benzopyran-4-one] | > 316
CC1(C)CCC2(CC1)CC(=O)c1cc(-c3nc(-c4ccncc4)no3)ccc1O2 [Compound 254, 4′,4′-dimethyl-6-[3-(pyridin-4-yl)-1,2,4-oxadiazol-5-yl]-3,4-dihydrospiro[1-benzopyran-2,1′-cyclohexane]-4-one] | < 316
CC(C)n1nnc2cc(-c3nc(-c4ccccc4Br)no3)ccc21 [Compound 282, 5-[3-(2-bromophenyl)-1,2,4-oxadiazol-5-yl]-1-(propan-2-yl)-1H-1,2,3-benzotriazole] | < 316
CC(C)Oc1ccccc1-c1noc(-c2ccc3c(ccn3C(C)C)c2)n1 [Compound 324, 3-(2-isopropoxyphenyl)-5-(1-isopropyl-1H-indol-5-yl)-1,2,4-oxadiazole] | > 316
CCC1(CC)CC(=O)c2cc(-c3nnc(-c4cccnc4)o3)ccc2O1 [Compound 28, 2,2-diethyl-6-(5-(pyridin-3-yl)-1,3,4-oxadiazol-2-yl)chroman-4-one] | > 316
COc1ccccc1-c1coc(-c2ccc3c(c2)nnn3C(C)C)n1 [Compound 277, 5-[4-(2-methoxy-phenyl)-1,3-oxazol-2-yl]-1-(propan-2-yl)-1H-1,2,3-benzotriazole] | < 316
